Assay results reported in ChEMBL document CHEMBL4825677, “Design, synthesis and biological evaluation of novel benzofuran derivatives as potent LSD1 inhibitors” (Eur J Med Chem, 2021).
pIC50: −log10 of the molar value.

How the values were obtained:
[1] = molecular target: Cytochrome P450 2C19 (Homo sapiens, UniProt P33261); test: Inhibition of CYP2C19 in human liver microsomes at 10 uM by LC-MS/MS analysis; type: ADME
[2] = test system: A549; test: cells; conditions: Homo sapiens, A549, 72 h
Description: Antiproliferative activity against human A549 cells assessed as reduction in cell viability incubated for 72 hrs by CCK8 assay

[3] = molecular target: Cytochrome P450 2D6 (Homo sapiens, UniProt P10635); test: Inhibition of CYP2D6 in human liver microsomes at 10 uM by LC-MS/MS analysis; type: ADME
[4] = test system: NCI-H460; test: Induction of apoptosis in human NCI-H460 cells assessed as early apoptotic cells at 3 uM incubated for 48 hrs by AnnexinV-FITC/propidium iodide staining based flow cytometric analysis (reference value: 2.22%); type: functional
[5] = molecular target: T1, Amine oxidase [flavin-containing] B (Homo sapiens, UniProt P27338); test: Inhibition of N-terminal FLAG-tagged human recombinant MAO-B expressed in baculovirus-infected Sf9 cells by […]
T1 sequence (P27338 whole entry): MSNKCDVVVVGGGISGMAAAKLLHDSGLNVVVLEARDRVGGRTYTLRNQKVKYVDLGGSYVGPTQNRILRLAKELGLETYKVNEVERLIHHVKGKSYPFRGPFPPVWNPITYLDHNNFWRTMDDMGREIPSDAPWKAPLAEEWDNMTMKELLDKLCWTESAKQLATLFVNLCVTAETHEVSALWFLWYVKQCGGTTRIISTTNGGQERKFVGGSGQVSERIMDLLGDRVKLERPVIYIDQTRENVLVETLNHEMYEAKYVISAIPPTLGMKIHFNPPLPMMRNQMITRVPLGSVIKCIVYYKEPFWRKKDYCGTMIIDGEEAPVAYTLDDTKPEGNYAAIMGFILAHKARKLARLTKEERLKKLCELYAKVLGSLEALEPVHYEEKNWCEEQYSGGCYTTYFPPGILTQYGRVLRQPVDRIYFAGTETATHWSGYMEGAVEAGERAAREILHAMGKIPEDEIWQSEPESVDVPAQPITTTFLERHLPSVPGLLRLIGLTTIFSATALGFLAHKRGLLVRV

[6] = test system: NCI-H460; test: Antitumor activity against human NCI-H460 cells xenografted in BALB/c mouse assessed as reduction in tumor weight at 20 mg/kg/day, ip for 15 days; type: functional; conditions: 360 h, time 15 day
[7] = test system: NCI-H460; test: Induction of apoptosis in human NCI-H460 cells assessed as late apoptotic cells at 1 uM incubated for 48 hrs by AnnexinV-FITC/propidium iodide staining based flow cytometric analysis (reference value: 1.36%); type: functional
[8] = test system: NCI-H460; test: Induction of apoptosis in human NCI-H460 cells assessed as early apoptotic cells at 2 uM incubated for 48 hrs by AnnexinV-FITC/propidium iodide staining based flow cytometric analysis (reference value: 2.22%); type: functional
[9] = test system: NCI-H460; test: cells; conditions: Homo sapiens, NCI-H460, 72 h
Description: Antiproliferative activity against human NCI-H460 cells assessed as reduction in cell viability incubated for 72 hrs by CCK8 assay

[10] = test system: MGC-803; test: cells; conditions: Homo sapiens, MGC-803, 72 h
Description: Antiproliferative activity against human MGC-803 cells assessed as reduction in cell viability incubated for 72 hrs by CCK8 assay

[11] = test system: THLE-2; test: cells; conditions: Homo sapiens, THLE-2, 72 h
Description: Cytotoxicity against human THLE-2 cells assessed as reduction in cell viability incubated for 72 hrs by CCK8 assay

[12] = test system: NCI-H460; test: Antitumor activity against human NCI-H460 cells xenografted in BALB/c mouse assessed as reduction in tumor volume at 20 mg/kg/day, ip for 15 days; type: functional; conditions: 360 h, time 15 day
[13] = test system: NCI-H460; test: Inhibition of cell migration in human NCI-H460 assessed as reduction in cell migration at 0.3 to 1.2 uM by wound healing assay; type: functional, cell-based; conditions: dose 0.3-1.2 µM, time 24-48 hrs, TDE = time-dependent effect
[14] = test system: MCF7; test: cells; conditions: Homo sapiens, MCF7, 72 h
Description: Antiproliferative activity against human MCF7 cells assessed as reduction in cell viability incubated for 72 hrs by CCK8 assay

[15] = test system: THP-1; test: cells; conditions: Homo sapiens, THP-1, 72 h
Description: Antiproliferative activity against human THP-1 cells assessed as reduction in cell viability incubated for 72 hrs by CCK8 assay

[16] = molecular target: T2, Amine oxidase [flavin-containing] A (Homo sapiens, UniProt P21397); test: Inhibition of N-terminal FLAG-tagged human recombinant MAO-A expressed in baculovirus-infected Sf9 cells by […]
T2 sequence (P21397 whole entry): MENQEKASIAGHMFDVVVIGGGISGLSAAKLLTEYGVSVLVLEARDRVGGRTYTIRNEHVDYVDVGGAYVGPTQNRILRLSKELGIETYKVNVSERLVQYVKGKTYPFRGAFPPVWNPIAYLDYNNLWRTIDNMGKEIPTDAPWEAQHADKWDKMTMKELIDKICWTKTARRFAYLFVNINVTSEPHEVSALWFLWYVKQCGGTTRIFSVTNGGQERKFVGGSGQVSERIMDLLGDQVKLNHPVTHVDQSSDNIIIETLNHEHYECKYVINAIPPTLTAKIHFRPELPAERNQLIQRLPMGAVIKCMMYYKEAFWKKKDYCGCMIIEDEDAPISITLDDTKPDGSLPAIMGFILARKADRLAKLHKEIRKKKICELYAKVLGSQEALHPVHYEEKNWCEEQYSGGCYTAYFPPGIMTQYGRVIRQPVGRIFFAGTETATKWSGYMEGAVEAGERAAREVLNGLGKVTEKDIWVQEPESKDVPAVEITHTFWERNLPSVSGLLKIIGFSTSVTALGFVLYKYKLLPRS

[17] = test system: NCI-H460; test: Induction of apoptosis in human NCI-H460 cells assessed as late apoptotic cells at 3 uM incubated for 48 hrs by AnnexinV-FITC/propidium iodide staining based flow cytometric analysis (reference value: 1.36%); type: functional
[18] = test system: NCI-H460; test: Induction of apoptosis in human NCI-H460 cells assessed as late apoptotic cells at 2 uM incubated for 48 hrs by AnnexinV-FITC/propidium iodide staining based flow cytometric analysis (reference value: 1.36%); type: functional
[19] = Toxicity in BALB/c mouse xenografted with human NCI-H460 cells assessed as body weight at 10 to 20 mg/kg/day, ip for 15 days and measured every 3 days; type: organism-based; conditions: in vivo, 360 h, dose 10-20 mg/kg/day, time 15 day
[20] = Microsomal stability in human liver microsomes assessed as parent compound remaining after 60 mins in absence of NADPH regenerating system by LC-MS/MS analysis; type: ADME, Microsome; conditions: read-out: Stabilty
[21] = test system: NCI-H460; test: Inhibition of cell migration in human NCI-H460 cells assessed as reduction in cell migration measured after 48 hrs by wound healing assay; type: functional, cell-based; conditions: dose 0.3-1.2 µM
[22] = molecular target: Cytochrome P450 2C9 (Homo sapiens, UniProt P11712); test: Inhibition of CYP2C9 in human liver microsomes at 10 uM by LC-MS/MS analysis; type: ADME
[23] = molecular target: T3, Cytochrome P450 1A2 (Homo sapiens, UniProt P05177); test: Inhibition of CYP1A2 in human liver microsomes at 10 uM by LC-MS/MS analysis; type: ADME
T3 sequence (P05177 whole entry): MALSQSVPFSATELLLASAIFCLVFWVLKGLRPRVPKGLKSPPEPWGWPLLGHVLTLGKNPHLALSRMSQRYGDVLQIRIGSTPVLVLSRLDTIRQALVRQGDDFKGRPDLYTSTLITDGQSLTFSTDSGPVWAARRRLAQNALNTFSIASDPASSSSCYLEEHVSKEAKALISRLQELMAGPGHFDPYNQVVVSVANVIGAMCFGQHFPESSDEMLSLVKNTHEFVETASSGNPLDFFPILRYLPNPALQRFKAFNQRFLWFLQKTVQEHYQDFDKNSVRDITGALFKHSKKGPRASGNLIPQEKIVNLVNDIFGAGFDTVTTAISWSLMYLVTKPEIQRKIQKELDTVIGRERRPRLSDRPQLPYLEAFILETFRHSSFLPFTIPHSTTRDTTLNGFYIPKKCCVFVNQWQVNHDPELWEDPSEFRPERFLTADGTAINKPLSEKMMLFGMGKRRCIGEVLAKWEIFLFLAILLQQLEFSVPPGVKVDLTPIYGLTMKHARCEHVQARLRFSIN

[24] = test system: NCI-H460; test: Induction of apoptosis in human NCI-H460 cells assessed as early apoptotic cells at 1 uM incubated for 48 hrs by AnnexinV-FITC/propidium iodide staining based flow cytometric analysis (reference value: 2.22%); type: functional
[25] = molecular target: Cytochrome P450 3A4 (Homo sapiens, UniProt P08684); test: Inhibition of CYP3A4 in human liver microsomes at 10 uM by LC-MS/MS analysis; type: ADME
[26] = Microsomal stability in human liver microsomes assessed as parent compound remaining after 60 mins in presence of NADPH regenerating system by LC-MS/MS analysis; type: ADME, Microsome; conditions: read-out: Stabilty
[27] = test system: MGC-803; test: Antiproliferative activity against human MGC-803 cells assessed as inhibition of cell growth by MTT assay; type: functional, cell-based
[28] = Metabolic stability in human liver microsomes assessed as half-life by LC-MS/MS analysis; type: ADME, Microsome
[29] = Metabolic stability in human liver assessed as intrinsic clearance by LC-MS/MS analysis; type: ADME, tissue-based; conditions: read-out: CLH
[30] = Metabolic stability in human liver microsome assessed as intrinsic clearance by LC-MS/MS analysis; type: ADME; conditions: liver microsomes, read-out: CLH
[31] = molecular target: Lysine-specific histone demethylase 1A (Homo sapiens, UniProt O60341); test: Inhibition of human recombinant LSD1 by horseradish peroxidase-coupled fluorometric assay

Cytochrome P450 3A4, sequence (P08684 whole entry): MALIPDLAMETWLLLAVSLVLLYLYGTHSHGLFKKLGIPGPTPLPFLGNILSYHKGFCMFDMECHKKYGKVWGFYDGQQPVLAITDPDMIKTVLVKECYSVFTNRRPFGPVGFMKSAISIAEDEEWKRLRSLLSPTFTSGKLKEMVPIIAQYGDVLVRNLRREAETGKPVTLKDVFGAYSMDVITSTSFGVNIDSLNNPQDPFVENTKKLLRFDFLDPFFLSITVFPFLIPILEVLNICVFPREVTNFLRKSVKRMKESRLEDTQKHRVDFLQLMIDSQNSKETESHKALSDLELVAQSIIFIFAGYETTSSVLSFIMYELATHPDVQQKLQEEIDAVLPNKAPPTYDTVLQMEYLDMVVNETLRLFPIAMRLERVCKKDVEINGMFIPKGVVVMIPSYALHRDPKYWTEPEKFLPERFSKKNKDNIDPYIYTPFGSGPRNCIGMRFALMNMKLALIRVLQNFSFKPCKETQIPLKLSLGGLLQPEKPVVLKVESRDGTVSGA
Cytochrome P450 2D6, sequence (P10635 whole entry): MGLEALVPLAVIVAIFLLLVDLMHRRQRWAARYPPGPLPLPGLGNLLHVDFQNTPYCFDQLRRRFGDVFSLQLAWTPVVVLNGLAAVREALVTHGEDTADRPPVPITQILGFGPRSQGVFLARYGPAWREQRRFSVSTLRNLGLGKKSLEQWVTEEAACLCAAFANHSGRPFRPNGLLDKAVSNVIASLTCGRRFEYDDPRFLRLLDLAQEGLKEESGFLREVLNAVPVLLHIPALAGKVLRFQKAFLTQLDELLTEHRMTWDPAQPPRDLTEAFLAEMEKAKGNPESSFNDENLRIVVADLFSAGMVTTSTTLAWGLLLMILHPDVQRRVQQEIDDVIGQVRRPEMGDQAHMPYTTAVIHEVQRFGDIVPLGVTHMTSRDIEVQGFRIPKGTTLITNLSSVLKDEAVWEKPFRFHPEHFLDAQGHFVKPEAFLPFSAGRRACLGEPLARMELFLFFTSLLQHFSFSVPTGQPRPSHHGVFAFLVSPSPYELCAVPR
Cytochrome P450 2C9, sequence (P11712 whole entry): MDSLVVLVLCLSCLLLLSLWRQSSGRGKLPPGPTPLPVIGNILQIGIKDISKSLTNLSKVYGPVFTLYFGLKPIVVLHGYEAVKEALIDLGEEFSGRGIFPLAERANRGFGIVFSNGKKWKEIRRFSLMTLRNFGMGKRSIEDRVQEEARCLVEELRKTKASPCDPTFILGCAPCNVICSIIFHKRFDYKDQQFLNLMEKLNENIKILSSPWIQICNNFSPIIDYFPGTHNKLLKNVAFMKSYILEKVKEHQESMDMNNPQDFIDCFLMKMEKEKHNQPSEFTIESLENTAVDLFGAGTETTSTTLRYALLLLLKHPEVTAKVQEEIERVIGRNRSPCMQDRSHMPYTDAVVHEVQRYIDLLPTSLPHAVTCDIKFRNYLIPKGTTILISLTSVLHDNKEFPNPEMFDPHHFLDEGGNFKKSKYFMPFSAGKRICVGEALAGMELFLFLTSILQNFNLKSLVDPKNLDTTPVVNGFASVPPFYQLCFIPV
Cytochrome P450 2C19, sequence (P33261 whole entry): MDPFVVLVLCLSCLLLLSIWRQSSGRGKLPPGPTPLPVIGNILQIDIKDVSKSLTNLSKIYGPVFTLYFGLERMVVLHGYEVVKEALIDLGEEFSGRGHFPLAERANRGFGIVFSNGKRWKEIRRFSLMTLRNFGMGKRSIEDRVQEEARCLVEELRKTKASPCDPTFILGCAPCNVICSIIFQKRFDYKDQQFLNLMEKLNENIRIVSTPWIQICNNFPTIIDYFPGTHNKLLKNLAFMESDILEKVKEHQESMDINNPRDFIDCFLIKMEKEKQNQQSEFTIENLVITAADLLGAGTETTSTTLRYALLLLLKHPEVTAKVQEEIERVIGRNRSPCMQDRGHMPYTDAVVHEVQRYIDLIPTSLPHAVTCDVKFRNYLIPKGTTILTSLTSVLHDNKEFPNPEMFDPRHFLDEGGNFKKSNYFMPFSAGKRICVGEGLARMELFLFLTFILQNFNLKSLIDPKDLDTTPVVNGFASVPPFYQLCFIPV

| inhibition (INH) [1] | pIC50 [2] | inhibition (INH) [3] | pIC50 [5] | pIC50 [9] | pIC50 [10] | pIC50 [11] | pIC50 [14] | pIC50 [15] | pIC50 [16] | remaining at 1 h [20] [%] | inhibition (INH) [22] | inhibition (INH) [23] | inhibition (INH) [25] | remaining at 1 h [26] [%] | half-life [28] [h] | CLint scaled [29] [L/h/kg] | microsomal CLint [30] [µL/min/mg] | Compound | also measured |
| --- | --- | --- | --- | --- | --- | --- | --- | --- | --- | --- | --- | --- | --- | --- | --- | --- | --- | --- | --- |
|  | 5.20 |  |  | 5.80 | 5.20 | 5.85 | 5.37 | 5.15 |  |  |  |  |  |  |  |  |  | Cc1ccc(-c2cc3occ(CNC4CCC(N)CC4)c3cc2-c2ccc(C#N)cc2)cc1 (centres undefined) |  |
|  | 5.61 |  |  | 5.72 | 5.12 | 5.40 | 5.24 | 5.18 |  |  |  |  |  |  |  |  |  | Cc1ccc(-c2cc3occ(CNCCN)c3cc2-c2ccc(C#N)cc2)cc1 |  |

The remaining lines, values behind:

| Compound | inhibition (INH) [1] | pIC50 [2] | inhibition (INH) [3] | pIC50 [5] | pIC50 [9] | pIC50 [10] | pIC50 [11] | pIC50 [14] | pIC50 [15] | pIC50 [16] | remaining at 1 h [20] [%] | inhibition (INH) [22] | inhibition (INH) [23] | inhibition (INH) [25] | remaining at 1 h [26] [%] | half-life [28] [h] | CLint scaled [29] [L/h/kg] | microsomal CLint [30] [µL/min/mg] | also measured |
| --- | --- | --- | --- | --- | --- | --- | --- | --- | --- | --- | --- | --- | --- | --- | --- | --- | --- | --- | --- |
| Cc1ccc(-c2cc3occ(CN4CCC[C@H](N)C4)c3cc2-c2ccc(C#N)cc2)cc1 | Active | 5.24 | Active | < 4.70 | 5.69 | 5.23 | 5.15 | 5.54 | 5.21 | < 4.70 | 76.1 | Active | Active | Active | 47 |  |  |  | Activity [4]: 19.13%; inhibition in vivo at 20 mg/kg/day [6]: 64%; Activity [7]: 0.87%; Activity [8]: 6.78%; inhibition in vivo at 20 mg/kg/day [12]: 68%; inhibition [13]: Tde; Activity [17]: 11.01%; Activity [18]: 2.77%; Activity [19]: Non-Toxic; inhibition [21]: Dose-Dependent Effect; Activity [24]: 2.22% |
| O=C(O)[C@H]1O[C@@H](Oc2cc3oc(-c4ccccc4)cc(=O)c3c(O)c2O)[C@H](O)[C@@H](O)[C@@H]1O [BAICALIN] |  |  |  |  |  |  |  |  |  |  |  |  |  |  |  |  |  |  | pIC50 [27]: 5.06 |
| Cc1ccc(-c2cc3occ(CNC4CCNC4)c3cc2-c2ccc(C#N)cc2)cc1 (centres undefined) | Active | 5.26 | Active | < 4.70 | 5.67 | 5.23 | 5.32 | 5.48 | 5.22 | < 4.70 | 56.7 | Active | Active | Active | 65.2 | 1.58 | 0.792 | 14.6 |  |
| NC1C[C@@H]1c1ccc(-c2cccc(O)c2)cc1 (single isomer, unassigned) |  |  |  |  |  |  |  |  |  |  |  |  |  |  |  |  |  |  | pIC50 [31]: 4.39 |
| CNCCCN(C)Cc1coc2cc(-c3ccc(C)cc3)c(-c3ccc(C#N)cc3)cc12 | Active | 5.39 | Active | < 4.70 | 5.73 | 5.19 | 5.38 | 5.47 | 5.31 | < 4.70 | 55.8 | Active | Active | Active | 7.9 | 0.168 | 7.43 | 138 |  |
| Cc1ccc(-c2ncc(OCC3CCNCC3)cc2-c2ccc(C#N)cc2)cc1 | Active | 5.01 | Active |  |  | 4.91 | 5.11 | 4.77 | 4.47 |  | 88.6 | Active | Active | Active | 67.5 | 1.78 | 0.702 | 13 | Activity [4]: 1.6%; Activity [7]: 1.12%; Activity [8]: 1.29%; inhibition [13]: Tde; Activity [17]: 1.21%; Activity [18]: 0.9%; inhibition [21]: Dose-Dependent Effect; Activity [24]: 1.49% |
